Here are results for 16 compounds from US7803825B2, “Aminoalkylazole derivatives as histamine-3 antagonists” (Wyeth LLC, priority 2007, dated 2010).

The structures appear in SMILES notation. Where a name gives a salt, the structure may show the parent alone.

The target in this experiment is T1, histamine-3 (H3) receptor (Homo sapiens, UniProt Q9Y5N1).
T1 construct: expressed in transfected cells; host or cells: HEK293T
T1 sequence (Q9Y5N1 whole entry): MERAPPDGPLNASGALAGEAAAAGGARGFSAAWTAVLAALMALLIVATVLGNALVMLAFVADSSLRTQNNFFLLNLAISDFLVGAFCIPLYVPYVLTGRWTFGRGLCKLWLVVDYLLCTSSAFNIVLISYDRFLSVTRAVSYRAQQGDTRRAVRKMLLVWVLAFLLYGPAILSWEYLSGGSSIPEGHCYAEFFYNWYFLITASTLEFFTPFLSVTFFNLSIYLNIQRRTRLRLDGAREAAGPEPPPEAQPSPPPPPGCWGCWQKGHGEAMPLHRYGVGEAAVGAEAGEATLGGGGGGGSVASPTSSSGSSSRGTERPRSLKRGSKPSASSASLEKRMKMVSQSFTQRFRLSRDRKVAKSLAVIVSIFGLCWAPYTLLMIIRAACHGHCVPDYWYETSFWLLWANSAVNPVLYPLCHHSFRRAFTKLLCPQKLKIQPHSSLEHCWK
Briefly: Methyl Histamine Binding in Human Histamine-3 Receptor Cell Line. To be noted: membranes of stably transfected HEK293T cells, radioligand 1 nM, Ki from IC50 by Cheng-Prusoff. The protocol: Evaluation of Methyl Histamine Binding in Human Histamine-3 Receptor Cell Line
The affinity of test compounds for the histamine-3 (H3) receptor is evaluated in the following manner. Stably transfected HEK293T cells are grown in DMEM containing 10% heat inactivated FBS and G-418 (500 ug/ml). Cells are scraped from the plate, transferred to centrifuge tubes, washed one time in PBS by centrifugation in a Sorvall RT7 Plus centrifuge (2000 rpm 10 minutes, 4° C.). The resulting pellets are stored at 80° C. until ready for use. Cells are re-suspended in buffer (50 mM Tris pH=7.5) and placed in a Dounce homogenizer, douncing ten times to homogenize cells. The homogenate is spun down by centrifugation (Sorvall RT7 Plus, 1800 rpm 10 minutes, 4° C.). The supernatant is placed in a Corex tube and spun down by centrifugation (Sorvall RC 5c Plus, 17,000 rpm 20 minutes, 4° C.). The pellet is resuspended in buffer (50 mM Tris, pH 7.5). Protein concentration (ug/ul) is determined using the Micro-BCA Protein Determination. The binding assay is set up in a 96 well microtiter plate in a total volume of 250 uL. Non-specific binding is determined in the presence of 10 uM clobenpropit. The final radioligand concentration is 1 nM. The test compound is serially diluted using the Beckman Biomek2000 to a final approximate range of 100 uM to 100 pM. Membranes are suspended in buffer, homogenized in 2 bursts of ten seconds using a Vitris mechanical homogenizer set at power setting 5. Ten μg of membranes are added to each well. Following a one hour incubation at 30° C., the reaction is terminated by the addition of ice cold buffer and rapid filtration with a Packard Filtermate Harvester through a GF/B filter pre-soaked with 1% PEI for one hour. The plate is dried for one hour at 37° C. and 60 μL Microscint Scintillant is added to each well. The CPM per well is measured on a Packard Top Count NXT. Ki values are determined in nM. The Ki is calculated from the IC50 (i.e. the concentration of competing ligand which displaces 50% of the specific binding of the radioligand). CPM values are expressed as % specific binding and plotted vs compound concentration. A curve is fitted using a four-parameter logistic fit and the IC50 value is determined. The Ki is calculated from this using the Cheng-Prusoff equation: […]=IC50/1+(L/Kd) where L=concentration of free radioligand used in the assay, and Kd is the dissociation constant of the radioligand for the receptor. L is determined for each experiment by counting an aliquot of the diluted radioligand (corresponding to that added to each well) and the Kd has previously been determined under identical conditions for this cell line/radioligand.
As for `C[C@H]1CCCN1Cc1coc(-c2ccc(Cn3ncc4ccccc43)cc2)n1` [Example 97, 1-[4-(4-{[(2S)-2-methylpyrrolidin-1-yl]methyl}-1,3-oxazol-2-yl)benzyl]-1H-indazole], the inhibitory constant (Ki) was ≤ 10 nM.

Consider `C[C@H]1CCCN1Cc1coc(-c2ccc(Cn3ncc4ccc(F)cc43)cc2)n1` [Example 99, 6-fluoro-1-[4-(4-{[(2S)-2-methylpyrrolidin-1-yl]methyl}-1,3-oxazol-2-yl)benzyl]-1H-indazole], for which the inhibition constant Ki was 10.1 to 25 nM.

As to `c1ccc2c(c1)ncn2Cc1ccc(-c2nc(CN3CCCCCC3)cs2)cc1` [Example 74, 1-{4-[4-(azepan-1-ylmethyl)-1,3-thiazol-2-yl]benzyl}-1H-benzimidazole], the inhibition constant (Ki) is ≤ 10 nM.

For the compound `CC1CCCN(Cc2coc(-c3ccc(-n4cnc5ccccc54)cc3)n2)C1` (stereo not shown) [Example 46, 1-(4-{4-[(3-methylpiperidin-1-yl)methyl]-1,3-oxazol-2-yl}phenyl)-1H-benzimidazole], the Ki is ≤ 10 nM.

In the case of `Cn1c(CN2CCCC2)cnc1-c1ccc(C#N)cc1` [Example 144, 4-(1-Methyl-5-pyrrolidin-1-ylmethyl-1H-imidazol-2-yl)-benzonitrile fumarate salt], the Ki was > 100 nM.

For `Cc1oc(-c2ccc(Cn3cnc4ccccc43)cc2)nc1CN1CCCC1` [Example 28, 1-{4-[5-methyl-4-(pyrrolidin-1-ylmethyl)-1,3-oxazol-2-yl]benzyl}-1H-benzimidazole], the inhibition constant (Ki) was ≤ 10 nM.

Turning to `CC1CCCN1Cc1cnc(-c2ccc(Cn3cnc4ccccc43)cc2)o1` (stereo not shown) [Example 105, 1-(4-{5-[(2-methylpyrrolidin-1-yl)methyl]-1,3-oxazol-2-yl}benzyl)-1H-benzimidazole], the inhibition constant (Ki) is ≤ 10 nM.

Take `c1ccc2c(c1)ncn2Cc1ccc(-c2ncc(CN3CCCCCC3)o2)cc1` [Example 111, 1-{4-[5-(azepan-1-ylmethyl)-1,3-oxazol-2-yl]benzyl}-1H-benzimidazole]: the inhibition constant (Ki) is > 100 nM.

As to `C[C@@H]1CCCN1Cc1coc(-c2ccc(Cn3ncc4cc(F)ccc43)cc2)n1` [Example 95, 5-fluoro-1-[4-(4-{[(2R)-2-methylpyrrolidin-1-yl]methyl}-1,3-oxazol-2-yl)benzyl]-1H-indazole], the inhibition constant (Ki) lay within 50.1 to 100 nM.

`C[C@H]1CCCN1Cc1coc(-c2ccc(Cn3ncc4cc(F)ccc43)cc2)n1` [Example 98, 5-fluoro-1-[4-(4-{[(2S)-2-methylpyrrolidin-1-yl]methyl}-1,3-oxazol-2-yl)benzyl]-1H-indazole]: the Ki was ≤ 10 nM.

Consider `C[C@@H]1CCCN1Cc1coc(-c2ccc(Cn3ncc4ccccc43)cc2)n1` [Example 94, 1-[4-(4-{[(2R)-2-methylpyrrolidin-1-yl]methyl}-1,3-oxazol-2-yl)benzyl]-1H-indazole], for which the Ki fell in the range of 50.1 to 100 nM.

With `c1ccc2c(c1)ncn2-c1ccc(-c2nc(CN3CCCC3)co2)cc1` [Example 36, 1-{4-[4-(pyrrolidin-1-ylmethyl)-1,3-oxazol-2-yl]phenyl}-1H-benzimidazole], the Ki was ≤ 10 nM.

`C[C@H]1CCCN1Cc1coc(-c2ccc(Cn3c(-c4ccccc4)nc4ccccc43)cc2)n1` [Example 117, 1-[4-(4-{[(2S)-2-methylpyrrolidin-1-yl]methyl}-1,3-oxazol-2-yl)benzyl]-2-phenyl-1H-benzimidazole]: the inhibition constant (Ki) was ≤ 10 nM.

For `Cn1c(CN2CCCC2)cnc1-c1ccc(-n2cnc3ccccc32)cc1` [Example 151, 1-[4-(1-Methyl-5-pyrrolidin-1-ylmethyl-1H-imidazol-2-yl)-phenyl]-1H-benzoimidazole fumarate salt], the inhibitory constant (Ki) is ≤ 10 nM.

Regarding `NCc1ccc2c(cnn2Cc2ccc(-c3nc(CN4CCCC4)co3)cc2)c1` [Example 102, 1-(1-{4-[4-(pyrrolidin-1-ylmethyl)-1,3-oxazol-2-yl]benzyl}-1H-indazol-5-yl)methanamine], the inhibition constant Ki was ≤ 10 nM.

With `OC[C@@H]1CCCN1Cc1coc(-c2ccc(Cn3cnc4ccccc43)cc2)n1` [Example 18, [(2S)-1-({2-[4-(1H-benzimidazol-1-ylmethyl)phenyl]-1,3-oxazol-4-yl}methyl)pyrrolidin-2-yl]methanol], the inhibitory constant (Ki) is 10.1 to 25 nM.
